Oligonucleotides are written 5' to 3', each unit as a sugar letter and its base; * is a phosphorothioate linkage, no mark a phosphodiester; rarer units and linkages stand in square brackets, end groups in braces. Plain capitals give the bases only. d = 2'-deoxy (DNA)
Assays:
SMAD7 protein = SMAD7 protein levels in human pDCs by FACS; format: cell-based; details: 24 hrs or 48 h, any indicated concentration, no transfection
Procedure: PBMC from healthy donors were isolated from Buffy Coat blood (Blood Center of NY) by density-gradient centrifugation over Ficoll-Hypaque (Pharmacia Biotech). The cells were washed with PBS and re-suspended in RPMI-1640 Media with 10% inactivated fetal bovine serum, penicillin (100 U/ml) and streptomycin (100 μg/ml) and 2 mM L-glutamine (complete medium, Life Technologies). PBMC were treated with ODNs for indicated time periods at indicated concentrations, generally between 0.0001 μM and 10 μM, with CD40L plus anti-HisTag antibody, or with a vehicle control (endotoxin-free sterile water control). No transfection reagent was added with the ODNs.
SMAD7 protein levels were determined using standard FACS protocols. PBMCs were incubated on ice in the presence of Fc-Block (BD Pharmingen) for 20 minutes, washed, and incubated with antibodies specific for surface molecules or isotype-matched control mAbs. PECY-7-labeled anti-human CCR6 mAb, and PerCP-Cy5.5 labeled anti-human CD123 mAb were purchased from BD Biosciences. SMAD7 antibody was purchased from Biorbyt, Cambridge, UK. The stained cells were then subjected to FACS (FACSCanto, BD Biosciences) using the FACSDiva software. FACS analysis was performed using FlowJo software. Single, viable cells in the CCR6+CD123+ pDC gates were used for analysis of, e.g., SMAD7 protein levels.

TLR8 = biological target: T1, TLR8 (Homo sapiens, UniProt Q9NR97); assay: TLR8 activation in HEK Blue TLR8 reporter cell line after lipo-transfection; format: cell-based; details: HEK Blue TLR8 reporter cells, Lipofectamine transfection, FIG. 24
T1 construct: host or cells: HEK Blue TLR8 reporter cells (engineered HEK293, NF-κB inducible SEAP)
T1 sequence (Q9NR97 27-1041): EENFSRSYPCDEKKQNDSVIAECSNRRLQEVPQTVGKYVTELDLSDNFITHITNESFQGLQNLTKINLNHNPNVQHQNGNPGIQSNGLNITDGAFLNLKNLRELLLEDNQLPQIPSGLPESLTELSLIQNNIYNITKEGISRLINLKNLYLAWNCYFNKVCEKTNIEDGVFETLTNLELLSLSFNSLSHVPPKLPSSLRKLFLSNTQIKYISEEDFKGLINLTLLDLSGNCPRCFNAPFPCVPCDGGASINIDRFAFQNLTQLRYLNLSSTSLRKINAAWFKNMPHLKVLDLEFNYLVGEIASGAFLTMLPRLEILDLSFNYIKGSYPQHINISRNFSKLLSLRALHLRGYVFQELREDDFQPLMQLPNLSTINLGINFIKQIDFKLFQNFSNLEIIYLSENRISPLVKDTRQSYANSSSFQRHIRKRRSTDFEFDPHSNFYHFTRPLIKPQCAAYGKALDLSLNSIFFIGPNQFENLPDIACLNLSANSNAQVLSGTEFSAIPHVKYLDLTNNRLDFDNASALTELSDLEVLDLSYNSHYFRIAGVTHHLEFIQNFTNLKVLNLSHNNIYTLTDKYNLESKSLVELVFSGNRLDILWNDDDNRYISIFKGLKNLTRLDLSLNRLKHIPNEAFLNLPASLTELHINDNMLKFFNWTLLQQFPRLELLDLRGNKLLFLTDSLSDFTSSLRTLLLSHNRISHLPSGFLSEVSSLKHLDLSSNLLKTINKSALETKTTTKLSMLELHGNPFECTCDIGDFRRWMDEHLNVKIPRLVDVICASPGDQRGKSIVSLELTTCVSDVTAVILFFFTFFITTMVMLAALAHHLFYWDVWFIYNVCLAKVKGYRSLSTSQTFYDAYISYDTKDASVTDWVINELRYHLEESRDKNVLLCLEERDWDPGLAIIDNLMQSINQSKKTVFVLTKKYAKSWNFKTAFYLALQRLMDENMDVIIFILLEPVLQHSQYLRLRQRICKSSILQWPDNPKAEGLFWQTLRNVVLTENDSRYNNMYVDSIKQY
Procedure: Briefly, the reporter cells were engineered HEK293 cells that express a TLR8 gene and are specially designed for monitoring activity of NF-kβ inducible SEAP (secreted embryonic alkaline phosphatase). Reporter cells were seeded at a density of around 60000/well in 96 wells plates for 72 hrs. Growth medium was removed and Lipofectamine™ (Life Technologies, Foster City, Calif.) 2000/oligonucleotide complex and agonist was added and incubated for 6 hrs. The complex was removed and Detection Medium was added for 16 hrs of incubation. Optical density of SEAP was measured by spectrophotometer at […]. […] See also, Table 7.

ODN150: 5′-G*G*A*ACAGTTCGTCCAT*G*G*C-3′, PO except * = PS; antisense to p65 of NF-kB mRNA; tested clinically for ulcerative colitis (DNA dG*dG*dA*dAdCdAdGdTdTdCdGdTdCdCdAdT*dG*dG*dC)
effect on SMAD7 protein levels (SMAD7 protein): do not affect | TLR8 activation (TLR8): substantially induced

Source: patent publication US20180289692A1, “TLR MODULATORS AND METHODS OF USE” (CELGENE CORPORATION, priority 2015, published 2018)
